Values quoted from earlier work as cited in US7153867B2, “Use of nitrogen substituted thalidomide analogs for the treatment of macular degenerator” (Celgene Corporation, priority 2001, dated 2006).

Test system: vascular endothelial cell proliferation
Conditions: in vitro; endothelial versus tumor cell proliferation

Compound: CO[C@@H]1[C@H](OC(=O)NC(=O)CCl)CC[C@]2(CO2)[C@H]1[C@@]1(C)O[C@@H]1CC=C(C)C [AGM-1470]
- half-maximal inhibition of vascular endothelial cell proliferation at lower concentration than tumor cell proliferation: 4 logs
